Test results published in US12440475B2, “Hodgkin lymphoma therapy” (priority 2016, dated 2025).

How the values were obtained:
[1] = system: relapsed-refractory Hodgkin lymphoma; conditions: cited from earlier work
[2] = system: Hodgkin lymphoma cell lines (KMH2, HDML2, L540, L1236 and L426); assay: IC50 comparison of bendamustine, vorinostat and EDO-S101, five cell lines; assay type: cell-based, human; conditions: Homo sapiens; range over all cell lines tested, including L1236-R
Protocol: (§1) • (a) Five Hodgkin lymphoma cell lines (KMH2, HDML2, L540, L1236 and L426) were cultured separately in the presence of bendamustine, vorinostat and EDO-S101 dissolved in DMSO at 37° C. L1236-derived Hodgkin lymphoma cell lines were selected as they have an acquired stable resistance to bendamustine (R100) or an ability to display continuous growth upon extended exposure to sub-lethal concentrations of bendamustine (R25, R50 and R75). A detailed description of the L1236-R Hodgkin lymphoma cell lines is disclosed in De Filippi et al, ASH 2015, Abstract. #2479. In these tests, the L1236-100R bendamustine resistant strain was used. […] Control cells were cultured in the same final concentration of DMSO. The number of viable cells was assessed at 24, 48 and 72 hours through a Countess™ automated cell counter (Invitrogen), each experiment being repeated three times and the results given being the mean of the three results±SD.

L1236-R100 = assay: Viable cell count and IC50, bendamustine-resistant cell line; assay type: cell-based, human; conditions: Homo sapiens; R100 cell line
Protocol: as §1

R100 = assay: Combination with Brentuximab Vedotin, % survival, R100; assay type: cell-based, human; conditions: Brentuximab Vedotin 0.39 μg/ml (typically 10-fold lower than IC50) with EDO-S101 1.56 μM
Protocol: 1.56 μM of EDO-S101 was administered to two Hodgkin lymphoma cell lines, the bendamustine naïve cell line L1236 and the bendamustine resistant cell line R100. In a second experiment, Brentuximab Vedotin was administered at a concentration of 3.12 μg/ml to the L1236 cell line and at a concentration of 0.39 μg/ml to the R100 cell line. Finally, in a third experiment EDO-S101 and Brentuximab Vedotin were administered in combination to each of the two cell lines at the same concentrations that they were administered in the monotherapy experiments.

| Compound | patients resistant to bendamustine [1] | IC50 [2] | IC50 (L1236-R100) | cytotoxic effect in combination with EDO-S101 (R100) |
| --- | --- | --- | --- | --- |
| Cn1c(CCCC(=O)O)nc2cc(N(CCCl)CCCl)ccc21 [bendamustine, reference compound] | about 40% | 11 to 17 µM | ~140 µM |  |
| Brentuximab Vedotin |  |  |  | considerable cytotoxic effect |
